Structures can show the parent of a compound that is named as a salt.
Experiment: in vitro
Details: rat, gh3-tre-luc cells

## C[C@]12CCC(=O)C[C@@H]1CC[C@@H]1[C@@H]2CC[C@]2(C)[C@@H](O)CC[C@@H]12 [5alpha-Dihydrotestosterone]
AC50 (uM) modified / 1000, Tox21_110001=Tox21_111056, viability, 1 nM T3 present, 24 h
  CC50 at 24 h: > 50 µM
AC50 (uM) modified / 1000, Tox21_110001=Tox21_200987, viability, 1 nM T3 present, 24 h
  CC50 at 24 h: > 90 µM
AC50 (uM) modified / 1000, Tox21_110001=Tox21_303655, viability, 1 nM T3 present, 24 h
  CC50 at 24 h: > 60 µM

## CCNC(=O)[C@@H](C)OC(=O)Nc1ccccc1 [Carbetamide]
AC50 (uM) modified / 1000
  CC50 at 24 h: > 90 µM

## COCCOCCO [Diethylene glycol monomethyl ether]
AC50 (uM) modified / 1000
  CC50 at 24 h: > 90 µM

## CC(=O)Nc1nnc(S(N)(=O)=O)s1 [Acetazolamide]
AC50 (uM) modified / 1000
  CC50 at 24 h: > 90 µM

## NC(=S)c1c(Cl)cccc1Cl [Chlorthiamid]
AC50 (uM) modified / 1000
  CC50 at 24 h: > 90 µM

## O=C(CCCCCCCCCCCCC1CCCC1)Nc1ccc(S(=O)(=O)c2ccc(NC(=O)CCCCCCCCCCCCC3CCCC3)cc2)cc1 [Chaulmosulfone]
AC50 (uM) modified / 1000
  CC50 at 24 h: > 50 µM

## O=C(NC(=O)c1ccccc1Cl)Nc1ccc(OC(F)(F)F)cc1 [Triflumuron]
AC50 (uM) modified / 1000
  CC50 at 24 h: > 90 µM

## O=c1[nH]cnc2nc[nH]c12 [Hypoxanthine]
AC50 (uM) modified / 1000
  CC50 at 24 h: > 50 µM

## CCc1cc(Cc2cc(CC)c(N)c(CC)c2)cc(CC)c1N [4,4'-Methylenebis(2,6-diethylaniline)]
AC50 (uM) modified / 1000
  CC50 at 24 h: 61.9 µM

## CN1C2=CC(=O)/C(=N\NC(N)=O)C=C2CC1S(=O)(=O)O (centres unmarked) [Carbazochrome sodium sulfonate]
AC50 (uM) modified / 1000
  CC50 at 24 h: > 50 µM

## CCc1cc(C(N)=S)ccn1 [Ethionamide]
AC50 (uM) modified / 1000
  CC50 at 24 h: > 50 µM

## Cc1ccncc1 [4-Methylpyridine]
AC50 (uM) modified / 1000
  CC50 at 24 h: > 100 µM

## O=NN(O)c1ccccc1 [Cupferron]
AC50 (uM) modified / 1000, Tox21_110001=Tox21_201493, viability, 1 nM T3 present, 24 h
  CC50 at 24 h: > 90 µM

## N#Cc1ccc(C(=O)O)cc1 [4-Cyanobenzoic acid]
AC50 (uM) modified / 1000
  CC50 at 24 h: > 90 µM

## CC[C@H](C)[C@H]1O[C@]2(C=C[C@@H]1C)C[C@@H]1C[C@@H](C/C=C(\C)[C@@H](O[C@H]3C[C@H](OC)[C@@H](O[C@H]4C[C@H](OC)[C@H](NC(C)=O)[C@H](C)O4)[C@H](C)O3)[C@@H](C)/C=C/C=C3\CO[C@@H]4[C@H](O)C(C)=C[C@@H](C(=O)O1)[C@]34O)O2 [Eprinomectin B1a]
AC50 (uM) modified / 1000
  CC50 at 24 h: 7.24 µM

## COC(=O)C1(O)c2ccccc2-c2ccccc21 [Flurenol-methyl]
AC50 (uM) modified / 1000, Tox21_110001=Tox21_301428, viability, 1 nM T3 present, 24 h
  CC50 at 24 h: > 90 µM

## O=C1O[C@H]2[C@H](O)[C@@H]1OC(O)[C@H]2O (some centres unmarked) [Mannuronic acid lactone]
AC50 (uM) modified / 1000
  CC50 at 24 h: > 50 µM

## Cc1ccc2c(c1N)C(=O)c1ccccc1C2=O [1-Amino-2-methylanthraquinone]
AC50 (uM) modified / 1000
  CC50 at 24 h: 78.4 µM

## CCCCCCCCCCCCCC(=O)OC [Methyl tetradecanoate]
AC50 (uM) modified / 1000
  CC50 at 24 h: > 90 µM

## Nc1ccc(S(=O)(=O)O)cc1 [Sodium sulfanilate]
AC50 (uM) modified / 1000
  CC50 at 24 h: > 90 µM

## CCCCCCCCCCCCCl [1-Chlorododecane]
AC50 (uM) modified / 1000, Tox21_110001=Tox21_201790, viability, 1 nM T3 present, 24 h
  CC50 at 24 h: > 90 µM

## CN1C(=O)NC(=O)C(C)(C2=CCCCC2)C1=O (centres unmarked) [Hexobarbital]
AC50 (uM) modified / 1000
  CC50 at 24 h: > 50 µM

## CO/N=C1\CN(c2nc3c(cc2F)c(=O)c(C(=O)O)cn3C2CC2)CC1CN (centres unmarked) [Gemifloxacin mesylate]
AC50 (uM) modified / 1000
  CC50 at 24 h: > 50 µM

## CCCCCCCCCC(=O)NO [Decanohydroxamic acid]
AC50 (uM) modified / 1000
  CC50 at 24 h: > 50 µM

## C[C@]1(O)CC[C@H]2[C@@H]3CCC4=CC(=O)CC[C@]4(C)[C@@]3(F)[C@@H](O)C[C@@]21C [Fluoxymestrone]
AC50 (uM) modified / 1000, Tox21_110001=Tox21_113158, viability, 1 nM T3 present, 24 h
  CC50 at 24 h: > 50 µM
AC50 (uM) modified / 1000, Tox21_110001=Tox21_200854, viability, 1 nM T3 present, 24 h
  CC50 at 24 h: > 90 µM

## O=C(O)c1cccc([N+](=O)[O-])c1 [3-Nitrobenzoic acid]
AC50 (uM) modified / 1000
  CC50 at 24 h: > 90 µM

## CCn1nc(Cc2ccccc2)cc1C1CCN(C[C@H]2C[C@H](N(C)[C@@H](C(=O)O)C(C)C)C[C@@H]2c2cccc(F)c2)CC1 [MK-578]
AC50 (uM) modified / 1000
  CC50 at 24 h: 66.4 µM

## CCCOC(C)=O [Propyl acetate]
AC50 (uM) modified / 1000
  CC50 at 24 h: > 90 µM

## NC(=O)c1c(Cl)cccc1Cl [2,6-Dichlorobenzamide]
AC50 (uM) modified / 1000
  CC50 at 24 h: > 90 µM

## O=C(CN1CCN(Cc2ccc3c(c2)OCO3)CC1)N1c2ccccc2Sc2ccccc21 [Fenoverine]
AC50 (uM) modified / 1000
  CC50 at 24 h: 23.4 µM

## O=C(Nc1ccc(/C=C/c2ccc(NC(=O)c3cc(S(=O)(=O)O)c4cccnc4c3O)cc2S(=O)(=O)O)c(S(=O)(=O)O)c1)c1cc(S(=O)(=O)O)c2cccnc2c1O [Ubistatin A]
AC50 (uM) modified / 1000
  CC50 at 24 h: > 50 µM

## CCc1c(C(=O)NN2CCCCC2)nn(-c2ccc(Cl)cc2Cl)c1-c1ccc(Br)cc1 [Surinabant]
AC50 (uM) modified / 1000
  CC50 at 24 h: 12.3 µM

## CC(=O)CC(c1ccc(Cl)cc1)c1c(O)c2ccccc2oc1=O (centres unmarked) [Coumachlor]
AC50 (uM) modified / 1000, Tox21_110001=Tox21_301860, viability, 1 nM T3 present, 24 h
  CC50 at 24 h: > 100 µM

## CCOP(=O)(N=C1SCCS1)OCC [Phosfolan]
AC50 (uM) modified / 1000, Tox21_110001=Tox21_301905, viability, 1 nM T3 present, 24 h
  CC50 at 24 h: > 90 µM

## c1ccc2c(c1)CCc1ccccc1N2 [10,11-Dihydro-5H-dibenz[b,f]azepine]
AC50 (uM) modified / 1000
  CC50 at 24 h: > 90 µM

## Cc1c([N+](=O)[O-])cc2c(c1[N+](=O)[O-])C(C)(C)CC2(C)C [1,1,3,3,5-Pentamethyl-4,6-dinitro-2,3-dihydro-1H-indene]
AC50 (uM) modified / 1000, Tox21_110001=Tox21_302237, viability, 1 nM T3 present, 24 h
  CC50 at 24 h: 74.8 µM

## CC1=C(/C=C/C(C)=C/C=C/C(C)=C/C=O)C(C)(C)CCC1 [Retinal]
AC50 (uM) modified / 1000
  CC50 at 24 h: 12.4 µM

## CC(C)(C)C(=O)O [2,2-Dimethylpropanoic acid]
AC50 (uM) modified / 1000
  CC50 at 24 h: > 90 µM

## O=C(c1ccc(O)cc1)c1ccc(O)cc1O [2,4,4'-Trihydroxybenzophenone]
AC50 (uM) modified / 1000
  CC50 at 24 h: > 90 µM

## O=C(Nc1ccccc1)Nc1ccnc(Cl)c1 [Forchlorfenuron]
AC50 (uM) modified / 1000
  CC50 at 24 h: 64.7 µM

## Cc1ccc(S(=O)(=O)NC(=O)NC2CCCC2)cc1 [Tolpentamide]
AC50 (uM) modified / 1000
  CC50 at 24 h: > 50 µM

## CCCCC(CC)COC(C)=O (centres unmarked) [2-Ethylhexyl acetate]
AC50 (uM) modified / 1000
  CC50 at 24 h: > 90 µM

## O=[N+]([O-])c1ccccc1CCO [2-(2-Nitrophenyl)ethanol]
AC50 (uM) modified / 1000
  CC50 at 24 h: > 90 µM

## CCCNC(C)(C)COC(=O)c1ccccc1 [Meprylcaine hydrochloride]
AC50 (uM) modified / 1000
  CC50 at 24 h: > 50 µM

## CC1=C(CC=O)C(C)(C)CCC1 [2,6,6-Trimethyl-1-cyclohexene-1-acetaldehyde]
AC50 (uM) modified / 1000
  CC50 at 24 h: > 90 µM

## CC1(C)O[C@H]2CC(=O)OC[C@]23[C@H]2CC[C@@]4(C)[C@H](c5ccoc5)OC(=O)[C@H]5O[C@]54[C@]2(C)C(=O)C[C@@H]13 [Limoni]
AC50 (uM) modified / 1000
  CC50 at 24 h: > 50 µM

## CCOC(=O)C(Cl)Cc1cc(-n2nc(C)n(C(F)F)c2=O)c(F)cc1Cl (centres unmarked) [Carfentrazone-ethyl]
AC50 (uM) modified / 1000, Tox21_110001=Tox21_300994, viability, 1 nM T3 present, 24 h
  CC50 at 24 h: > 90 µM

## COc1ccc(OC)c(CC(C)N)c1 (centres unmarked) [2,5-Dimethoxyamphetamine hydrochloride]
AC50 (uM) modified / 1000
  CC50 at 24 h: > 100 µM

## C=C(C)C(=O)OCCC[Si](Cl)(Cl)Cl [3-(Trichlorosilyl)propyl methacrylate]
AC50 (uM) modified / 1000
  CC50 at 24 h: > 90 µM

## CN1CCC(OC(=O)C(Oc2ccc(Cl)cc2)Oc2ccc(Cl)cc2)CC1 [Lifibrate]
AC50 (uM) modified / 1000
  CC50 at 24 h: 27.6 µM

## OCc1c2ccccc2cc2ccccc12 [9-Anthracenemethanol]
AC50 (uM) modified / 1000
  CC50 at 24 h: > 90 µM

## CCCCCCCCCC/C=C/C1CC(=O)OC1=O (centres unmarked) [3-(Dodecenyl)dihydro-2,5-furandione]
AC50 (uM) modified / 1000
  CC50 at 24 h: > 90 µM

## c1ccc(CSCc2ccccc2)cc1 [Benzyl sulfide]
AC50 (uM) modified / 1000
  CC50 at 24 h: > 90 µM

## O=[N+]([O-])c1cc([N+](=O)[O-])c2ccc(S(=O)(=O)O)cc2c1O [8-Hydroxy-5,7-dinitro-2-naphthalenesulfonic acid]
AC50 (uM) modified / 1000
  CC50 at 24 h: 65.4 µM

## OCC(O)CCl (centres unmarked) [3-Chloro-1,2-propanediol]
AC50 (uM) modified / 1000, Tox21_110001=Tox21_202262, viability, 1 nM T3 present, 24 h
  CC50 at 24 h: > 90 µM

## CC12CCC(C1)C(C)(C)C2=O (stereo not drawn) [alpha-Fenchone]
AC50 (uM) modified / 1000
  CC50 at 24 h: > 50 µM

## N#[N+]c1ccc2c(S(=O)(=O)[O-])cccc2c1O [1-Naphthalenesulfonic acid, 6-diazo-5,6-dihydro-5-oxo, sodium salt]
AC50 (uM) modified / 1000
  CC50 at 24 h: > 90 µM

## CC1(C)C(/C=C/C=C/C=C/C=C2\N(CCCCS(=O)(=O)O)c3ccc4ccccc4c3C2(C)C)=[N+](CCCCS(=O)(=O)[O-])c2ccc3ccccc3c21 [Indocyanine green]
AC50 (uM) modified / 1000
  CC50 at 24 h: 19.5 µM

## NC1CCN(c2nc3c(cc2F)c(=O)c(C(=O)O)cn3-c2ccc(F)cc2F)C1 (centres unmarked) [Tosufloxacin toluenesulfonic acid]
AC50 (uM) modified / 1000
  CC50 at 24 h: > 50 µM

## CC(C)(C)CC(=O)OCC(=O)[C@@]12OC(C)(C)O[C@@H]1C[C@H]1[C@@H]3CCC4=CC(=O)C=C[C@]4(C)[C@@]3(F)[C@@H](O)C[C@@]12C [Triamcinolone hexacetonide]
AC50 (uM) modified / 1000
  CC50 at 24 h: > 50 µM

## CC(C)NCC(O)c1ccccc1Cl (centres unmarked) [Clorprenaline hydrochloride]
AC50 (uM) modified / 1000
  CC50 at 24 h: > 50 µM

## CC(C)CON=O [Isobutyl nitrite]
AC50 (uM) modified / 1000, Tox21_110001=Tox21_202411, viability, 1 nM T3 present, 24 h
  CC50 at 24 h: > 90 µM
AC50 (uM) modified / 1000, Tox21_110001=Tox21_302863, viability, 1 nM T3 present, 24 h
  CC50 at 24 h: > 30 µM

## C=C(C)C(=O)OCCCCCCCCCCCCC [Tridecyl methacrylate]
AC50 (uM) modified / 1000
  CC50 at 24 h: > 90 µM

## Nc1c2c(nc3c1CCC3)CCCC2 [Ipidacrine hydrochloride hydrate]
AC50 (uM) modified / 1000
  CC50 at 24 h: > 50 µM

## CCC(=O)O[C@]1(C(=O)SCF)[C@H](C)C[C@H]2[C@@H]3C[C@H](F)C4=CC(=O)C=C[C@]4(C)[C@@]3(F)[C@@H](O)C[C@@]21C [Fluticasone propionate]
AC50 (uM) modified / 1000
  CC50 at 24 h: > 20 µM

## CC(=O)O[C@H]1CC[C@H]2[C@@H]3CCC4=CC(=O)CCC4=C3C=C[C@]12C [Trenbolone acetate]
AC50 (uM) modified / 1000
  CC50 at 24 h: > 50 µM

## C=CCCCCCCCCCCCCCCCC [1-Octadecene]
AC50 (uM) modified / 1000
  CC50 at 24 h: > 5 µM
